We go through 21 molecules from patent publication US9050334B2, “MIF inhibitors and their uses” (INNOV88 LLC, priority 2010, dated 2015).

One experiment relates to LPS-stimulated PBMCs. As to the kind of experiment: TNF-α production in LPS-stimulated PBMCs. Particulars: PBMC; human PBMCs, 25 μM compound preincubated 1 hour, LPS stimulation, 24 hours. Format: cell-based. As to the method: (§1) Effect of Candidate Compounds on Cytokine Production from Human Cells: Mono-Mac-6 Cells: The cellular efficacy of the inhibitors is determined using the human monocytic cell line, Mono-Mac-6 cells (MM6 cells) as it has been shown that MIF induces the production of inflammatory mediators, including tumor necrosis factor-α (TNF-α) interleukin (IL)-1β, IL-6, IL-8, interferon-γ (IFN-γ) and prostaglandin E2 (PGE2) in these cells (Schwartz et al., 2009). Recombinant human MIF (rhMIF) will be purchased from R&D Systems (Minneapolis, Minn.) or generated in house. To induce the production of inflammatory mediators, MM6 cells will be plated at a final concentration of 5×10^5 cells/ml in RPMI 1640 medium containing 1% heat-inactivated low-pyrogen fetal bovine serum, 2 mM GlutaMAX-1,1% non-essential amino acids, 1% sodium pyruvate, 100 units/ml penicillin G and 100 μg/ml streptomycin (Gibco BRL Life Technologies). Cells will be stimulated with 100 ng/ml rhMIF with or without inhibitor for 20 h at 37° C. with 5% CO2. The supernatants were stored at −20° C. until they were assayed. The levels of inflammatory mediators will be determined using commercial ELISA kits from R&D Systems (Minneapolis, Minn.). Human Periperal Blood Mononuclear Cells (PBMC): Human whole blood is collected from healthy donors in sodium-heparinized tubes (BD Biosciences), and peripheral blood mononucleated cells (PBMC) are isolated by Ficoll separation. Cells are washed in Dulbecco's phosphate-buffered saline, resuspended in media (DMEM) containing 5% low endotoxin (<0.3 EU/ml) fetal Bovine Serum (FBS, GIBCO) and 10 units/ml penicillin/streptomycin, and plated at 5×10^5 cells/well in 96-well tissue culture plates. Lipopolysaccharide (LPS, E. coli Serotype 0111:B4, Sigma) or macrophage migration inhibitory factor are pre-incubated for 15 minutes with compounds dissolved in dimethyl sulfoxide (DMSO). The mixtures are then added to cells to yield final concentrations of 1% DMSO, 100 ng/ml LPS and 1 μg/ml MIF. Cells are incubated for overnight at 37° C., 5% CO2. TNF-α production is measured by ELISA (R&D Systems). Cytotoxicity is assessed using the MTT [3-(4,5-dimethylthiazol-2-yl)-2,5-diphenyl tetrazolium bromide assay. Human Rheumatoid Arthritis Synovial Fibroblast (RASF) Cell Line: RASF cells are derived from the inflamed synovium of a RA patient who was undergoing total knee replacement. Cells are cultured in Dulbecco's modified Eagle's medium with 15% FBS, 1% glutamine, and 1% penicillin/streptamycin (all from Gibco (Invitrogen), Gaithersburg, Md.). Experiments are performed with cells between passages 7 to 10, using trypsin with 0.25% ethylene diamine tetraacetic acid (EDTA)(Gibco) to detach cells. Interleukin 1 or macrophage migration inhibitory factor (MIF, GIBCO) are pre-incubated for 15 minutes with compounds dissolved in dimethyl sulfoxide (DMSO). The mixtures are then added to cells to yield final concentrations of 1% DMSO, 1 ng/ml Interleukin 1 or 1 μg/ml MIF. RASFs are incubated with or without stimuli at 37° C. for 20 h for induction of Interelukin 6. Interleukin 6 levels in culture supernatants are quantitated by ELISA. Representative MIF inhibitors were tested in the assay described above, specifically, human peripheral blood mononuclear cells [PBMCs] were isolated and stimulated with either LPS or rhMIF.

For the next experiment, the target named is T1, Native human MIF (Homo sapiens, UniProt P14174).
T1 sequence (P14174 2-115 limits assumed): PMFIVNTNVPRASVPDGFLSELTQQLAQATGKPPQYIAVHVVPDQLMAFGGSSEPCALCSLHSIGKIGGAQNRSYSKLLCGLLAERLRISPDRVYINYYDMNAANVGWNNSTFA
As to the kind of experiment: MIF tautomerase activity assay with hydroxyphenyl pyruvic acid (HPP) substrate. Format: biochemical. The note with it: absorbance at 300 nm. Here is the method: The ability of candidate compounds to inhibit this tautomerase activity are quantitated by using hydroxyphenyl pyruvic acid (HPP) as a substrate (Ouertatani-Sakouhi et al., 2010). The ability of compounds to inhibit the tautomerase activity can be quantitated by following the increase in absorbance due to the enzymatic formation of the HPP enol-borate complex at 300 nm in the absence and presence of a test compound. The IC50 value of compounds are determined by plotting the initial velocities determined at 300 nm as a function of a test compound's concentration. Assays are carried out in a 96 or 384 well plate format. Representative MIF inhibitors were tested in the assay described above and the results tabulated in Table 1 wherein “A” represents≦10 μM; “B” represents>10 μM and <100 μM; “C” represents>100 μM and ≦200 μM; and “D” represents>200 μM.

Experiment [1] concerns rhMIF-stimulated PBMCs. As to the kind of experiment: TNF-α production in rhMIF-stimulated PBMCs. Format: cell-based. Particulars: PBMC; human PBMCs, 25 μM compound preincubated 1 hour, rhMIF stimulation, 24 hours. As to the method: as §1, with “Interleukin 1 or macrophage migration inhibitory factor (MIF, GIBCO) are pre-incubated for 15 minutes with compounds dissolved in dimethyl sulfoxide (DMSO). The mixtures are then added to cells to yield final concentrations of 1% DMSO, 1 ng/ml Interleukin 1 or 1 μg/ml MIF. RASFs are incubated with or without stimuli at 37° C. for 20 h for induction of Interelukin 6.” left out, “Representative MIF inhibitors were tested in the assay described above, specifically, human peripheral blood mononuclear cells [PBMCs] were isolated and stimulated with either LPS or rhMIF.” left out

The test system of experiment [2] is rhMIF-stimulated PBMCs. Briefly: IL-6 production in rhMIF-stimulated PBMCs. The class given is cell-based. Particulars: PBMC; human PBMCs, 25 μM compound preincubated 1 hour, rhMIF stimulation, 24 hours. As to the method:
Effect of Candidate Compounds on Cytokine Production from Human Cells: Mono-Mac-6 Cells: The cellular efficacy of the inhibitors is determined using the human monocytic cell line, Mono-Mac-6 cells (MM6 cells) as it has been shown that MIF induces the production of inflammatory mediators, including tumor necrosis factor-α (TNF-α) interleukin (IL)-1β, IL-6, IL-8, interferon-γ (IFN-γ) and prostaglandin E2 (PGE2) in these cells (Schwartz et al., 2009). Recombinant human MIF (rhMIF) will be purchased from R&D Systems (Minneapolis, Minn.) or generated in house. To induce the production of inflammatory mediators, MM6 cells will be plated at a final concentration of 5×10^5 cells/ml in RPMI 1640 medium containing 1% heat-inactivated low-pyrogen fetal bovine serum, 2 mM GlutaMAX-1,1% non-essential amino acids, 1% sodium pyruvate, 100 units/ml penicillin G and 100 μg/ml streptomycin (Gibco BRL Life Technologies). Cells will be stimulated with 100 ng/ml rhMIF with or without inhibitor for 20 h at 37° C. with 5% CO2. The supernatants were stored at −20° C. until they were assayed. The levels of inflammatory mediators will be determined using commercial ELISA kits from R&D Systems (Minneapolis, Minn.). […] Cytotoxicity is assessed using the MTT [3-(4,5-dimethylthiazol-2-yl)-2,5-diphenyl tetrazolium bromide assay. […] Interleukin 6 levels in culture supernatants are quantitated by ELISA. […]

pIC50: −log10 of the molar value.

With `Cn1c(=O)c(C#N)c(NC2CCN(C(=O)c3cccs3)CC2)c2ccccc21` [XVII-1, 1-methyl-2-oxo-4-{[1-(thiophen-2-ylcarbonyl)piperidin-4-yl]amino}-1,2-dihydroquinoline-3-carbonitrile], the inhibition (as a rule, the drop in the measured response relative to a control, in per cent) at 25 µM in the experiment on LPS-stimulated PBMCs was 50 to 70%. For the same molecule, the pIC50 (in general, −log10 of the IC50, conventionally taken in molar units) at Native human MIF was not below 5.00.
As to `Cn1c(=O)c(C#N)c(N2CCC(C(=O)NCCO)CC2)c2ccccc21` [XIII], the pIC50 against Native human MIF is less than 3.70.
The same measure, in the same setting: as for `N#Cc1c(NC2CN(C(=O)c3cncnc3)C2)c2ccccc2n(Cc2ccc(F)cc2)c1=O` [XXXVII], the figure is 4.00 to 5.00.
The same measure, in the same setting: to `Cn1c(=O)c(C#N)c(N2CCC(C(=O)O)CC2)c2ccccc21` [Compound X, 1-(3-cyano-1-methyl-2-oxo-1,2-dihydroquinolin-4-yl)piperidine-4-carboxylic acid] belongs less than 3.70.
`N#Cc1c(N2CCC(C(=O)c3cccs3)CC2)c2ccccc2n(Cc2ccc(F)cc2)c1=O` [Compound XXVIII, 1-(4-fluorobenzyl)-2-oxo-4-[4-(thiophen-2-ylcarbonyl)piperidin-1-yl]-1,2-dihydroquinoline-3-carbonitrile]: the inhibition at 25 µM in the experiment with LPS-stimulated PBMCs was in the range of 10 to 50%. Further, the pIC50 against Native human MIF is 3.70 to 4.00.
With `Cn1c(=O)c(C#N)c(N2CC(NC(=O)c3cccs3)C2)c2ccccc21` [Compound XXI, N-[1-(3-cyano-1-methyl-2-oxo-1,2-dihydroquinolin-4-yl)azetidin-3-yl]thiophene-2-carboxamide], the inhibition at 25 µM with LPS-stimulated PBMCs is not above 10%; with rhMIF-stimulated PBMCs [1] it was 10 to 50%; in the experiment with rhMIF-stimulated PBMCs [2], 10 to 50%. The molecule further showed a pIC50 on Native human MIF of 4.00 to 5.00.
At Native human MIF, `Cn1c(=O)c(C#N)c(NC2CCN(S(C)(=O)=O)CC2)c2ccccc21` [Compound XXV] showed a negative-log IC50 (pIC50) of less than 3.70.
Still for that read-out and setting: to `Cn1c(=O)c(C#N)c(NC2CN(S(C)(=O)=O)C2)c2ccccc21` [Compound XXVI, 1-methyl-4-(1-(methylsulfonyl)azetidin-3-ylamino)-2-oxo-1,2-dihydroquinoline-3-carbonitrile] belongs 4.00 to 5.00.
For the molecule `Cn1c(=O)c(C#N)c(N2CCC(NC(=O)c3cccs3)CC2)c2ccccc21` [Compound VIII, N-[1-(3-cyano-1-methyl-2-oxo-1,2-dihydroquinolin-4-yl)piperidin-4-yl]thiophene-2-carboxamide], the inhibition at 25 µM with LPS-stimulated PBMCs fell in the range of 10 to 50%. The molecule also showed a pIC50 against Native human MIF not below 5.00.
In the experiment on rhMIF-stimulated PBMCs [1], `N#Cc1c(NC2CN(C(=O)c3cccs3)C2)c2ccccc2n(Cc2ccc(F)cc2)c1=O` [XXXVI] showed an inhibition at 25 µM of more than 70%. The same molecule gave a pIC50 on Native human MIF not below 5.00.
Regarding `Cn1c(=O)c(C#N)c(N2CCC(C(=O)Nc3ccn[nH]3)CC2)c2ccccc21` [Compound XV], the pIC50 against Native human MIF is not below 5.00.
Still for that read-out and setting: to `Cn1c(=O)c(C#N)c(N2CC(C(=O)NCc3ccncc3)C2)c2ccccc21` [Compound XIX, 1-(3-cyano-1-methyl-2-oxo-1,2-dihydroquinolin-4-yl)-N-(pyridin-4-ylmethyl)azetidine-3-carboxamide] belongs not below 5.00.
In the experiment with rhMIF-stimulated PBMCs [1], `N#Cc1c(NC2CN(C(=O)c3ccncc3)C2)c2ccccc2n(Cc2ccc(F)cc2)c1=O` [XXXV] displayed an inhibition at 25 µM of 10 to 50%. The negative-log IC50 (pIC50) on Native human MIF is not below 5.00.
`Cn1c(=O)c(C#N)c(N2CCC(C(=O)c3cccs3)CC2)c2ccccc21` [Compound IV, 1-methyl-2-oxo-4-[4-(thiophen-2-ylcarbonyl)piperidin-1-yl]-1,2-dihydroquinoline-3-carbonitrile]: in the experiment with LPS-stimulated PBMCs, the inhibition at 25 µM lay in the range of 10 to 50%. At Native human MIF, this molecule showed a pIC50 of 3.70 to 4.00.
With `Cn1c(=O)c(C#N)c(N2CCC(C(=O)NCc3ccncc3)CC2)c2ccccc21` [Compound XI, 1-(3-cyano-1-methyl-2-oxo-1,2-dihydroquinolin-4-yl)N-(pyridin-4-ylmethyl)piperidine-4-carboxamide], at Native human MIF, the negative logarithm of the IC50 (pIC50) is less than 3.70.
The same measure, in the same setting: as for `N#Cc1c(NC2CN(S(=O)(=O)c3cccs3)C2)c2ccccc2n(Cc2ccc(F)cc2)c1=O` [XXXIV, 1-(4-fluorobenzyl)-2-oxo-4-(1-(thiophen-2-ylsulfonyl)azetidin-3-ylamino)-1,2-dihydroquinoline-3-carbonitrile], the figure is less than 3.70; as for `N#Cc1c(N2CC(C(=O)c3cccs3)C2)c2ccccc2n(Cc2ccc(F)cc2)c1=O` [XXXVIII], 3.70 to 4.00.
Same read-out and setting: to `Cn1c(=O)c(C#N)c(N2CCC(C(=O)Nc3nccs3)CC2)c2ccccc21` [XIV] belongs not below 5.00; to `CN(C)C(=O)C1CCN(c2c(C#N)c(=O)n(C)c3ccccc23)CC1` [XII], less than 3.70.
Take `Cn1c(=O)c(C#N)c(N2CC(C(=O)c3cccs3)C2)c2ccccc21` [Compound V]: the inhibition at 25 µM in the experiment on LPS-stimulated PBMCs is more than 70%. The molecule further showed a pIC50 against Native human MIF of 4.00 to 5.00.
The like results for `N#Cc1c(NC2CCN(C(=O)c3cccs3)CC2)c2ccccc2n(Cc2ccc(F)cc2)c1=O` [XXXIII] were, in that order, 50 to 70% and not below 5.00.
